Data: ChEMBL document CHEMBL4425183, “Gold catalyzed double condensation reaction: Synthesis, antimicrobial and cytotoxicity of spirooxindole derivatives” (Bioorg Med Chem Lett, 2016)
Values after ≈ are worked out from the molar mass of the structure shown.

Legend:
COLO 320 = assay: cells; settings: Homo sapiens, COLO 320, read-out: GI
Description: Cytotoxicity against human COLO320 cells assessed as cell growth inhibition at 156 uM by MTT assay relative to control

Malassezia pachydermatis = assay: Antifungal activity against Malassezia pachydermatis at 1 mg/disc after 48 hrs at 28 degC by disc diffusion method; assay type: functional
Candida albicans [1] = assay: Antifungal activity against Candida albicans MTCC 227 at 1 mg/disc after 48 hrs at 28 degC by disc diffusion method; assay type: functional
Candida albicans [2] = assay: Antifungal activity against Candida albicans MTCC 227 after 48 to 72 hrs at 28 degC by two fold serial dilution method; assay type: functional
Staphylococcus aureus [3] = assay: Antibacterial activity against Staphylococcus aureus MTCC 96 after 24 hrs at 37 degC by two fold serial dilution method; assay type: functional; settings: MTCC 96, 24 h
Staphylococcus aureus [4] = assay: Antibacterial activity against Staphylococcus aureus MTCC 96 at 1 mg/disc after 24 hrs at 37 degC by disc diffusion method; assay type: functional
Shigella flexneri [5] = assay: Antibacterial activity against Shigella flexneri MTCC 1457 after 24 hrs at 37 degC by two fold serial dilution method; assay type: functional; settings: MTCC 1457, 24 h
[6] = test system: Staphylococcus epidermidis; assay: Antibacterial activity against Staphylococcus epidermidis MTCC 3615 after 24 hrs at 37 degC by two fold serial dilution method; assay type: functional; settings: MTCC 3615, 24 h
Salmonella typhimurium [7] = assay: Antibacterial activity against Salmonella typhimurium MTCC 1251 after 24 hrs at 37 degC by two fold serial dilution method; assay type: functional, Salmonella enterica subsp. enterica serovar Typhimurium; settings: Salmonella enterica, MTCC 1251, 24 h
Salmonella typhimurium [8] = assay: Antibacterial activity against Salmonella typhimurium MTCC 1251 at 1 mg/disc after 24 hrs at 37 degC by disc diffusion method; assay type: functional, Salmonella enterica subsp. enterica serovar Typhimurium
Staphylococcus aureus [9] = assay: Antibacterial activity against methicillin-resistant Staphylococcus aureus after 24 hrs at 37 degC by two fold serial dilution method; assay type: functional
Klebsiella aerogenes [10] = assay: Antibacterial activity against Enterobacter aerogenes MTCC 111 at 1 mg/disc after 24 hrs at 37 degC by disc diffusion method; assay type: functional
[11] = test system: Staphylococcus epidermidis; assay: Antibacterial activity against Staphylococcus epidermidis MTCC 3615 at 1 mg/disc after 24 hrs at 37 degC by disc diffusion method; assay type: functional
Micrococcus luteus [12] = assay: Antibacterial activity against Micrococcus luteus MTCC 106 at 1 mg/disc after 24 hrs at 37 degC by disc diffusion method; assay type: functional
Bacillus subtilis [13] = assay: Antibacterial activity against Bacillus subtilis MTCC 441 after 24 hrs at 37 degC by two fold serial dilution method; assay type: functional; settings: MTCC 441, 24 h
Klebsiella pneumoniae [14] = assay: Antibacterial activity against Klebsiella pneumoniae MTCC 109 at 1 mg/disc after 24 hrs at 37 degC by disc diffusion method; assay type: functional
Staphylococcus aureus [15] = assay: Antibacterial activity against methicillin-resistant Staphylococcus aureus at 1 mg/disc after 24 hrs at 37 degC by disc diffusion method; assay type: functional
Klebsiella pneumoniae [16] = assay: Antibacterial activity against Klebsiella pneumoniae MTCC 109 after 24 hrs at 37 degC by two fold serial dilution method; assay type: functional; settings: MTCC 109, 24 h
Micrococcus luteus [17] = assay: Antibacterial activity against Micrococcus luteus MTCC 106 after 24 hrs at 37 degC by two fold serial dilution method; assay type: functional; settings: MTCC 106, 24 h
Bacillus subtilis [18] = assay: Antibacterial activity against Bacillus subtilis MTCC 441 at 1 mg/disc after 24 hrs at 37 degC by disc diffusion method; assay type: functional
Klebsiella aerogenes [19] = assay: Antibacterial activity against Enterobacter aerogenes MTCC 111 after 24 hrs at 37 degC by two fold serial dilution method; assay type: functional; settings: MTCC 111, 24 h
Shigella flexneri [20] = assay: Antibacterial activity against Shigella flexneri MTCC 1457 at 1 mg/disc after 24 hrs at 37 degC by disc diffusion method; assay type: functional

SMILES: O=P1(N(CCCl)CCCl)NCCCO1 (configuration not stated) [CYCLOPHOSPHAMIDE ANHYDROUS]
- inhibition of growth at 156 µM (COLO 320): 90%

SMILES: CC(=O)N1CCN(c2ccc(OCC3COC(Cn4ccnc4)(c4ccc(Cl)cc4Cl)O3)cc2)CC1 (configuration not stated) [KETOCONAZOLE]
- inhibition zone (IZ) (Malassezia pachydermatis): 26 mm
- inhibition zone (IZ) (Candida albicans [1]): 28 mm
- MIC (Candida albicans [2]): 25 µM (≈ 13.3 µg/mL)

SMILES: CN[C@@H]1[C@H](O[C@H]2[C@H](O[C@H]3[C@H](O)[C@@H](O)[C@H](N=C(N)N)[C@@H](O)[C@@H]3N=C(N)N)O[C@@H](C)[C@]2(O)C=O)O[C@@H](CO)[C@H](O)[C@H]1O [STREPTOMYCIN]
- MIC (Staphylococcus aureus [3]): 6.25 µM (≈ 3.63 µg/mL)
- inhibition zone (IZ) (Staphylococcus aureus [4]): 14 mm
- MIC (Shigella flexneri [5]): 6.25 µM (≈ 3.63 µg/mL)
- MIC [6]: 25 µM (≈ 14.5 µg/mL)
- MIC (Salmonella typhimurium [7]): 30 µM (≈ 17.4 µg/mL)
- inhibition zone (IZ) (Salmonella typhimurium [8]): 18 mm
- MIC (Staphylococcus aureus [9]): 6.25 µM (≈ 3.63 µg/mL)
- inhibition zone (IZ) (Klebsiella aerogenes [10]): 22 mm
- inhibition zone (IZ) [11]: 25 mm
- inhibition zone (IZ) (Micrococcus luteus [12]): 26 mm
- MIC (Bacillus subtilis [13]): 25 µM (≈ 14.5 µg/mL)
- inhibition zone (IZ) (Klebsiella pneumoniae [14]): 20 mm
- inhibition zone (IZ) (Staphylococcus aureus [15]): 30 mm
- MIC (Klebsiella pneumoniae [16]): 6.25 µM (≈ 3.63 µg/mL)
- MIC (Micrococcus luteus [17]): 6.25 µM (≈ 3.63 µg/mL)
- inhibition zone (IZ) (Bacillus subtilis [18]): 25 mm
- MIC (Klebsiella aerogenes [19]): 25 µM (≈ 14.5 µg/mL)
- inhibition zone (IZ) (Shigella flexneri [20]): 30 mm
